Activity calls are given as the source filed them.
Legend:
[1] = HGIII-sPLA2 enzyme inhibition potency – biochemical, QFRET, IC50, dose response (AID 743457);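 note: green fluorescence rise as the enzyme cleaves BODIPY PC-A2 in liposomes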
[2] = biological target: Induced myeloid leukemia cell differentiation protein Mcl-1 (Homo sapiens, UniProt Q07820); type: functional
[3] = biological target: T1, Short transient receptor potential channel 4 (Mus musculus, UniProt Q9QUQ5); assay: calcium entry via TRPC4 opening agents – cell-based, HEK293 TRPC4/mu-opioid, Fluo-4 calcium, dose response (AID 434937); type: functional
T1 sequence (Q9QUQ5 whole entry): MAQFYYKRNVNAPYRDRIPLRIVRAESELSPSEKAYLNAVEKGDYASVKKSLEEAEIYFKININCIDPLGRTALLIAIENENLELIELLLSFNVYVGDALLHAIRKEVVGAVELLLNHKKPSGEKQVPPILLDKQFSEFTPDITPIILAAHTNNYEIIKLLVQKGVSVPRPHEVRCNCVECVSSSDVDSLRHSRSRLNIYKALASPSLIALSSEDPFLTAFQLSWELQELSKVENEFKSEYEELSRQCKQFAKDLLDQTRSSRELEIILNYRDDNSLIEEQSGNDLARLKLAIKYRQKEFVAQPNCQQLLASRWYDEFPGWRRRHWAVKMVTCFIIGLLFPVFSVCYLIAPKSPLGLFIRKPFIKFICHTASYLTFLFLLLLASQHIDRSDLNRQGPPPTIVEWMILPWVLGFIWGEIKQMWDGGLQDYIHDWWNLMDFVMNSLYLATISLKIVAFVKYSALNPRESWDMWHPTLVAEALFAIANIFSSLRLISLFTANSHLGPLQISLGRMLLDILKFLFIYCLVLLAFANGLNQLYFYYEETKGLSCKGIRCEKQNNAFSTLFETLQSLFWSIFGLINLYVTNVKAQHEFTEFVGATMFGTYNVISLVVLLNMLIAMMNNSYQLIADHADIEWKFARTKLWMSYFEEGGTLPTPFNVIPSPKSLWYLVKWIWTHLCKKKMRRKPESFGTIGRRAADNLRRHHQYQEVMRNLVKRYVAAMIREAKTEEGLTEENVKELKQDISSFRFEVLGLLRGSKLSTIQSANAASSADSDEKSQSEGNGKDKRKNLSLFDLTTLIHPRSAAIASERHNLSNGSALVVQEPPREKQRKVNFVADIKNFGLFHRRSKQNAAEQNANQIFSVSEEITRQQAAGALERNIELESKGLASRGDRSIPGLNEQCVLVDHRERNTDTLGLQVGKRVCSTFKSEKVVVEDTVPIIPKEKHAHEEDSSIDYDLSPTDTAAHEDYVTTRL

[4] = biological target: T2, High affinity choline transporter 1 (Homo sapiens, UniProt Q9GZV3); assay: human choline transporter blockers, potency – cell-based, 5-point CRC, membrane potential dye, dose response (AID 504840); type: functional
T2 sequence (Q9GZV3 whole entry): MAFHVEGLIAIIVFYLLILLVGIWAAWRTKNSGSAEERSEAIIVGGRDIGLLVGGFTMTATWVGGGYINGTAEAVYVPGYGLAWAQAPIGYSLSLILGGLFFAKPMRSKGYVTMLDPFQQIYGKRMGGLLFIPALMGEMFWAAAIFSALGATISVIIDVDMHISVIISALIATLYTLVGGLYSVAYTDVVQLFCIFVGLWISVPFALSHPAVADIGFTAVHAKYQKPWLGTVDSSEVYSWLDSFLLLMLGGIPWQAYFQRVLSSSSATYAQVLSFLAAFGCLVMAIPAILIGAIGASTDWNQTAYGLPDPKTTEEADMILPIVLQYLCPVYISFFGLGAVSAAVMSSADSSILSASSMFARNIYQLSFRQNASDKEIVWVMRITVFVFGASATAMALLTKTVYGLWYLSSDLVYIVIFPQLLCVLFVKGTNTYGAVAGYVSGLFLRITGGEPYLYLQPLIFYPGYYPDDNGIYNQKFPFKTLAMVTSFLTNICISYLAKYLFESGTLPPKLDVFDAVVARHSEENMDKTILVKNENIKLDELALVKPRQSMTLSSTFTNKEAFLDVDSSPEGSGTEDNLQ

[5] = microbe, parasite or virus in culture; type: functional; settings: Mycobacterium tuberculosis
Vero = assay: cells; type: functional; settings: Chlorocebus sabaeus
Beta-galactosidase = Beta-galactosidase (Escherichia coli, UniProt Q8VNN2); assay: Dose response counterscreen for EBI2 assay utilizing the enzyme, b-galactosidase.; type: functional
H4 = assay: Luminescence Cell-Based Dose Response HTS to Identify Activators of 5'UTR Stem-Loop Driven Prion Protein mRNA Translation in H4 Neuroglioblastoma Cells. [Related pubchem assays: 1829 (Project Summary), 1814 (Primary HTS)]; type: functional; settings: Homo sapiens
[6] = Luminescence Cell-Based Dose Confirmation HTS to Identify Activators of 5'UTR Stem-Loop Driven Alpha-Synuclein mRNA Translation in H4 Neuroglioblastoma Cells. [Related pubchem assays: 1829 (Project Summary), 1814 (Primary HTS)]; type: functional
Protein skinhead-1 = biological target: T3, Protein skinhead-1 (Caenorhabditis elegans, UniProt P34707); type: functional
T3 sequence (P34707 whole entry): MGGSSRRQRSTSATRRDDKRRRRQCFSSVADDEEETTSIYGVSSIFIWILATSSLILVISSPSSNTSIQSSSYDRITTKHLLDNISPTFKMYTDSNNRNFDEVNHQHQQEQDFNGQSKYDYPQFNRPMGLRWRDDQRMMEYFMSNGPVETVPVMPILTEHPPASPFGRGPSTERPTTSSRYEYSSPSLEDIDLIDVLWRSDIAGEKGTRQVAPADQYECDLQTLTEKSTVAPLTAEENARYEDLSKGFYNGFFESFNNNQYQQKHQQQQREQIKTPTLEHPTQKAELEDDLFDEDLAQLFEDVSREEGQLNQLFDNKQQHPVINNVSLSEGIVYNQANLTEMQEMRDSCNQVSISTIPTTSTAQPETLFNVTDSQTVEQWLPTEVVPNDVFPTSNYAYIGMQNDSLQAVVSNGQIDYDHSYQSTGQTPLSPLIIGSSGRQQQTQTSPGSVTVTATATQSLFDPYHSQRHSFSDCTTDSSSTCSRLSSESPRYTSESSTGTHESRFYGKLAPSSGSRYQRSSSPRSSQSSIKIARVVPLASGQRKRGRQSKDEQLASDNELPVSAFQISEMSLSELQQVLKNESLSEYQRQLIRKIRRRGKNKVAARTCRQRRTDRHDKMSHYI

[7] = biological target: T4, Nuclear receptor subfamily 0 group B member 1 (Homo sapiens, UniProt P51843); type: functional, cell-based;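 note: HEK293T cells transfected with SF-1 and DAX-1 plus StAR promoter luciferase reporter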
T4 sequence (P51843 whole entry): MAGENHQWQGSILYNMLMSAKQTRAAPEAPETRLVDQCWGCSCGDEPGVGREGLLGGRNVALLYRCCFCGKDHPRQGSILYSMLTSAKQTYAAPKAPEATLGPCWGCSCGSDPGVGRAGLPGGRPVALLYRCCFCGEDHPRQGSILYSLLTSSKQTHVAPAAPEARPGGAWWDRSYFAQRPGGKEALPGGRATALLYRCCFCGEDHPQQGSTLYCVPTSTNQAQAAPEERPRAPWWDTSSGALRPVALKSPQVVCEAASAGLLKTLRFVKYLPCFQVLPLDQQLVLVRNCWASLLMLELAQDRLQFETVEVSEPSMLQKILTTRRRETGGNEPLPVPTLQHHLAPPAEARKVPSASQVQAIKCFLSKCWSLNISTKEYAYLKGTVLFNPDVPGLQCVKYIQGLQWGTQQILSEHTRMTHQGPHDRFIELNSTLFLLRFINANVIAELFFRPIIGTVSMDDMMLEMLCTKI

[8] = Luminescence Cell-Based Dose Response HTS to Identify Activators of Luciferase Translation or Activity in H4 […] Cells. [Related pubchem assays: 1829 (Project Summary), 1814 (Primary HTS)]; type: functional
cells [9] = type: functional, cell-based
[10] = blockers of bursicon-stimulated LGR2 cAMP reporter – cell-based, HEK293, CRE-luciferase reporter, cherry pick, set 2, dose response (AID 743343); type: functional;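 note: transfected cells were stimulated with diluted bursicon conditioned medium after compound addition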
[11] = toxicity toward HepG2 liver cells – cell-based, plate reader, cherry-pick, antagonist series, cytotoxicity control, dose response (AID 743416); type: functional
[12] = A549 cell cytotoxicity, dose response, cytotoxicity control, plate reader, cherry-pick, antagonist series (AID 743412); type: functional, cell-based
[13] = blockade of melanocortin 4 receptor signaling – cell-based, plate reader, cherry pick, counter-screen for LGR2 antagonist project, dose response (AID 743444); type: functional;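 note: transfected HEK 293 cells stimulated with alpha-MSH peptide; potency of inhibitors of the alpha-MSH evoked signal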
Galanin receptor type 3 = biological target: T5, Galanin receptor type 3 (Homo sapiens, UniProt O60755); assay: Fluorescence-based cell-based primary high throughput dose response assay to identify antagonists of the Galanin Receptor 3 (GalR3).; type: functional
T5 sequence (O60755 whole entry): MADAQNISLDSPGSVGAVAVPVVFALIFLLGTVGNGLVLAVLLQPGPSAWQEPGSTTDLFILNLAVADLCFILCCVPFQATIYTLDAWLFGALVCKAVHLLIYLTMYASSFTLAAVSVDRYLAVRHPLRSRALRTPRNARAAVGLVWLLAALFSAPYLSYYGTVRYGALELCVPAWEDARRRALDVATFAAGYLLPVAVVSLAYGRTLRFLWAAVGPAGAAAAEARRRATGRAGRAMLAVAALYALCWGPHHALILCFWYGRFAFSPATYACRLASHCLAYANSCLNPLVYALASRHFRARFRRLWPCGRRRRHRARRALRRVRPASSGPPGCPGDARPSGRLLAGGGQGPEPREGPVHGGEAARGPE

cells [14] = type: functional, cell-based; settings: HEK-CNG
[15] = biological target: T6, Heat shock factor protein 1 (Mus musculus, UniProt P38532); assay: enhancement of HSF1-driven luciferase signal – cell-based, NIH3T3, luminescence, dose retest, confirmation (AID 435004); type: functional;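 note: stress induced by proteasome inhibitor MG132 added 30 min after compound; luciferase reporter driven by HSF1 response element in NIH3T3 cells; actives raise luminescence as potentiators of the MG132 stress response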
T6 sequence (P38532 whole entry): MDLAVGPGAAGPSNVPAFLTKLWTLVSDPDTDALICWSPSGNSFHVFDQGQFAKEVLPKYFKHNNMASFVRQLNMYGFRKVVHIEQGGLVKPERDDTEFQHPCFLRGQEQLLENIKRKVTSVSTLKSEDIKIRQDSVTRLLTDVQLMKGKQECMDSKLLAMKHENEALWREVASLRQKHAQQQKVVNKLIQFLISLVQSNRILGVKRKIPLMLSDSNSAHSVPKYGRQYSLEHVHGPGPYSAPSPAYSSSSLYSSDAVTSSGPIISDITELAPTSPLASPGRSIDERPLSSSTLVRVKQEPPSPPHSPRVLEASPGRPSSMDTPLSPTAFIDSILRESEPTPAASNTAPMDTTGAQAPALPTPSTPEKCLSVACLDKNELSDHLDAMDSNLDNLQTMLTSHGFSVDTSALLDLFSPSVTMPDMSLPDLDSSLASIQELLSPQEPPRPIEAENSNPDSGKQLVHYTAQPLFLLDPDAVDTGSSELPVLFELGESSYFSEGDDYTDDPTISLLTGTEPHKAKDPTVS

[16] = viability loss in THP-1 monocytes – THP-1 cells, cytotoxicity control for Vif-APOBEC3G degradation inhibitor project, dose response (AID 1117359); type: functional; settings: THP-1
[17] = viability loss in HeLa cells – cytotoxicity control for MgcRacGAP inhibitor project, dose response (AID 624300); type: functional
[18] = biological target: T7, Rac GTPase-activating protein 1 (Homo sapiens, UniProt Q9H0H5); assay: blockers of MgcRacGAP-driven Rac1 GTP hydrolysis – biochemical, ADP Hunter fluorescence, primary and confirmatory, confirmation (AID 624330); type: functional
T7 sequence (Q9H0H5 whole entry): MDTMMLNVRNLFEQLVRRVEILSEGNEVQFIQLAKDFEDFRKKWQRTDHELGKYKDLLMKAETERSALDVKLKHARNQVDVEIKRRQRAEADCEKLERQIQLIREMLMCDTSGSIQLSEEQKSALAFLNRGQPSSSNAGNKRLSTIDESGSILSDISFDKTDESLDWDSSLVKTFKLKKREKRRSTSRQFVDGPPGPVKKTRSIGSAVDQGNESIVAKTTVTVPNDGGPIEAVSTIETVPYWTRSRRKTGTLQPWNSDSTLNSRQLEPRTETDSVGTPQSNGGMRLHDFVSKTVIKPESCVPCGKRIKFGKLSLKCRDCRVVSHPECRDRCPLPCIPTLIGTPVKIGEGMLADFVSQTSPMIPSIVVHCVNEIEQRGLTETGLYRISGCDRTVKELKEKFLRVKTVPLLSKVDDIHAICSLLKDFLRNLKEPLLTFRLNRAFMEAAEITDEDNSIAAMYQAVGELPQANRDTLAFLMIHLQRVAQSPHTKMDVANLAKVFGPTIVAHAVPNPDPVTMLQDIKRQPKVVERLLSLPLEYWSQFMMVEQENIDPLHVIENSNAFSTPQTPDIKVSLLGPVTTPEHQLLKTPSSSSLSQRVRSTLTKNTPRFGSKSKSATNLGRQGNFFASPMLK

Chain of Beta-galactosidase (Q8VNN2 whole entry): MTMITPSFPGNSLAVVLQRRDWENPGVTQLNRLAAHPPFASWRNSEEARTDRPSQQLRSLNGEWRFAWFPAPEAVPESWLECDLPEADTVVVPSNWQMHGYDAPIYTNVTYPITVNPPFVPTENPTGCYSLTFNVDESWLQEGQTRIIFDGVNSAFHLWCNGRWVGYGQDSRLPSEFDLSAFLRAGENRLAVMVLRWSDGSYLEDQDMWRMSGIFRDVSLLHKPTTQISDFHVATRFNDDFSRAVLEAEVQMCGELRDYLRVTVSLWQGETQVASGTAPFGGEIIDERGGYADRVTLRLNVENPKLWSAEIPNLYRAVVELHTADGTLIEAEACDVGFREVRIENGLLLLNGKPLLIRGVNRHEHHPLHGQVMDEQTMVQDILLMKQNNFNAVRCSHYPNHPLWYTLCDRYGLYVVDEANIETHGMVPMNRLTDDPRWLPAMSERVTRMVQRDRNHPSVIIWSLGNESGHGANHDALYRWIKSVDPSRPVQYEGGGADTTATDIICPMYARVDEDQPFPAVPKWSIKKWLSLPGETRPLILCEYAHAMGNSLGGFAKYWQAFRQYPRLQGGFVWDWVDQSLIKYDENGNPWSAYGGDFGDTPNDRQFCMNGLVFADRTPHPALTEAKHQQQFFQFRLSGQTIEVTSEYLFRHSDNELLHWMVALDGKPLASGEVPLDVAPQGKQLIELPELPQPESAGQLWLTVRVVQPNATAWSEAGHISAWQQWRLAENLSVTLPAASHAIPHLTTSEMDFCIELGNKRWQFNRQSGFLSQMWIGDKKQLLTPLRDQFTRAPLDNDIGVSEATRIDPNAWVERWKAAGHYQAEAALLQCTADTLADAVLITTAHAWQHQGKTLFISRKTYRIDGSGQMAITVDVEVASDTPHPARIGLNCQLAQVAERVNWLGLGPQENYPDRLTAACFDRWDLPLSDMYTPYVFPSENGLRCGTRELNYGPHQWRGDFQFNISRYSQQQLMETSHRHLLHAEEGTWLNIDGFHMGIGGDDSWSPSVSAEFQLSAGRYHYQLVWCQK
Chain of Induced myeloid leukemia cell differentiation protein Mcl-1 (Q07820 whole entry): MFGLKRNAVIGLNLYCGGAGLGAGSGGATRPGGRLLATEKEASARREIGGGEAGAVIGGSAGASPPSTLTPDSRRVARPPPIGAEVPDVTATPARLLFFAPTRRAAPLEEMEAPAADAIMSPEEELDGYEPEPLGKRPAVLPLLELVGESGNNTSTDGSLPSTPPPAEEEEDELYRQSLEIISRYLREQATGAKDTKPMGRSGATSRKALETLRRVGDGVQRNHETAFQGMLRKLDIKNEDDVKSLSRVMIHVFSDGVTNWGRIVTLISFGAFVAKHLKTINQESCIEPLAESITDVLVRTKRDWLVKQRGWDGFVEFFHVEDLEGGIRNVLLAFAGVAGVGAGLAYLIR

SMILES: CN(C)c1ccc(NC(=O)c2cccc(C(=O)Nc3ccc(N(C)C)cc3)n2)cc1
- IC50 [1]: 40 µM (inactive)
- IC50 [2]: 3.33 µM (active)

SMILES: Cc1cccc(C(=O)NNC(=S)NC(=O)c2ccccc2)c1
- IC50 [1]: > 122 µM (inactive)
- EC50 [3]: 2.11 µM (active)
- IC50 [4]: 7.59 µM (active)
- CC50 [5]: 24 µM (active)
- CC50 (Vero): > 25 µM (active)

SMILES: C=CCc1cccc(CNc2nc3ccccc3n2CCN2CCOCC2)c1O
- IC50 (Beta-galactosidase): > 80 µM (inactive)

SMILES: O=C(c1cc(COc2ccc(F)cc2Cl)on1)N1C[C@H]2C[C@H]3C[C@@H](C2)C[C@H]1C3
- EC50 (H4): 47.6 µM (active)
- EC50 [6]: 0.917 µM (active)
- IC50 (Protein skinhead-1): > 100 µM (inactive)
- IC50 [7]: > 67.5 µM (inactive)
- EC50 [8]: 26.2 µM (active)
- IC50 (cells [9]): > 67.5 µM (inactive)

SMILES: COc1ccc(C(=O)Nc2nnc(SCC(=O)NCc3ccco3)s2)c(OC)c1
- AC50 [10]: 6.14 µM (active)
- AC50 [11]: > 52 µM (inactive)
- IC50 [7]: > 67.5 µM (inactive)
- AC50 [12]: > 52 µM (inactive)
- IC50 (cells [9]): > 67.5 µM (inactive)
- AC50 [13]: 4.64 µM (active)

SMILES: CC(C)NC(=O)NC(=O)COC(=O)Cc1c(F)cccc1Cl
- IC50 (Galanin receptor type 3): > 29.9 µM (inactive)
- EC50 (cells [14]): > 29.9 µM (inactive)

SMILES: O=C(/C=C/c1ccc(OCCCF)cc1)N1CCN(Cc2ccccc2)CC1
- IC50 (Beta-galactosidase): > 80 µM (inactive)

SMILES: S=C(N/N=C/c1cccs1)NC1CC2CCC1C2 (stereo not given)
- IC50 [1]: > 122 µM (inactive)
- EC50 [15]: > 260 µM (inactive)
- CC50 [16]: > 40 µM (active)

SMILES: COc1ccc(-c2cc(NC=O)c3ncc(-c4cc(OC)c(OC)c(OC)c4)n3c2)cc1
- IC50 [7]: > 67.6 µM (inactive)
- IC50 (cells [9]): > 67.6 µM (inactive)

SMILES: C/C(=N\Nc1ccc(S(=O)(=O)N2CCCCC2)cn1)c1ccc(O)cc1
- CC50 [17]: 100 µM (active)
- IC50 [18]: 23.4 µM (active)

From ChEMBL document CHEMBL1201862, “PubChem BioAssay data set” (2004)
